Assay results as given in ChEMBL document CHEMBL3885881, “DrugMatrix”.

Organism: Rattus norvegicus
Assay: DrugMatrix - Regimen: Daily Repeat
Type: toxicity, organism-based, Sprague-Dawley
Parameters: regimen Daily Repeat, gender Male, age 6-8 weeks
Conditions: in vivo, po, route oral GAVAGE, vehicle .5 % CMC; for ABSOLUTE BASOPHIL / ABSOLUTE EOSINOPHIL / ABSOLUTE LYMPHOCYTE / ABSOLUTE MONOCYTE / ABSOLUTE SEGMENTED NEUTROPHIL / BASOPHIL / EOSINOPHIL / ERYTHROCYTE COUNT / HEMATOCRIT / HEMOGLOBIN / LEUKOCYTE COUNT / LYMPHOCYTE / MEAN CORPUSCULAR HEMOGLOBIN / MEAN CORPUSCULAR HEMOGLOBIN CONCENTRATION / MEAN CORPUSCULAR VOLUME / MONOCYTE / NEUTROPHIL / NUCLEATED RED BLOOD CELLS / PLATELET COUNT: tissue Blood; for ALANINE AMINOTRANSFERASE / ALBUMIN / ALKALINE PHOSPHATASE / ASPARTATE AMINOTRANSFERASE / BLOOD UREA NITROGEN / CARBON DIOXIDE / CHLORIDE / CHOLESTEROL / CREATINE PHOSPHOKINASE / CREATININE / GLUCOSE / LACTATE DEHYDROGENASE / LIPASE / PHOSPHORUS / POTASSIUM / SODIUM / TOTAL BILIRUBIN / TOTAL PROTEIN / URIC ACID: tissue Plasma
[1] = 100 mg/kg, 120 h, dose level Low, time 5 day
[2] = 1500 mg/kg, 72 h, dose level High, time 3 day
[3] = 1500 mg/kg, 120 h, dose level High, time 5 day

Structure (SMILES): CO[C@H]1/C=C/O[C@@]2(C)Oc3c(C)c(O)c4c(c3C2=O)C2=NC3(CCN(CC(C)C)CC3)NC2=C(NC(=O)/C(C)=C\C=C\[C@H](C)[C@H](O)[C@@H](C)[C@@H](O)[C@@H](C)[C@H](OC(C)=O)[C@@H]1C)C4=O [RIFABUTIN]
- ABSOLUTE BASOPHIL [1]: 0 CELLS/uL
- ABSOLUTE EOSINOPHIL [1]: 0 CELLS/uL
- ABSOLUTE LYMPHOCYTE [1]: 10855 CELLS/uL
- ABSOLUTE MONOCYTE [1]: 0 CELLS/uL
- ABSOLUTE SEGMENTED NEUTROPHIL [1]: 1111.67 CELLS/uL
- BASOPHIL [1]: 0%
- EOSINOPHIL [1]: 0%
- ERYTHROCYTE COUNT [1]: 5.53 x10E6/uL
- HEMATOCRIT [1]: 35%
- HEMOGLOBIN [1]: 13.9 G/DL
- LEUKOCYTE COUNT [1]: 11.97 x10E3/uL
- LYMPHOCYTE [1]: 90.67%
- MEAN CORPUSCULAR HEMOGLOBIN [1]: 25.2 pg
- MEAN CORPUSCULAR HEMOGLOBIN CONCENTRATION [1]: 39.77 G/DL
- MEAN CORPUSCULAR VOLUME [1]: 63.37 fL
- MONOCYTE [1]: 0%
- NEUTROPHIL [1]: 9.33%
- NUCLEATED RED BLOOD CELLS [1]: 0 /100WBC
- PLATELET COUNT [1]: 1189 x10E3/uL
- ALANINE AMINOTRANSFERASE [1]: 54.33 u/L
- ALBUMIN [1]: 4.2 G/DL
- ALKALINE PHOSPHATASE [1]: 319 u/L
- ASPARTATE AMINOTRANSFERASE [1]: 78.33 u/L
- BLOOD UREA NITROGEN [1]: 16.67 mg/dL
- CARBON DIOXIDE [1]: 24.67 mmol/L
- CHLORIDE [1]: 102.33 MEQ/L
- CHOLESTEROL [1]: 81.33 mg/dL
- CREATINE PHOSPHOKINASE [1]: 352 u/L
- CREATININE [1]: 0.18 mg/dL
- GLUCOSE [1]: 154.67 mg/dL
- LACTATE DEHYDROGENASE [1]: 179 u/L
- LIPASE [1]: 9.33 u/L
- PHOSPHORUS [1]: 12.83 mg/dL
- POTASSIUM [1]: 6.38 MEQ/L
- SODIUM [1]: 144.7 MEQ/L
- TOTAL BILIRUBIN [1]: 0.23 mg/dL
- TOTAL PROTEIN [1]: 6 G/DL
- URIC ACID [1]: 1.6 mg/dL
- ABSOLUTE BASOPHIL [2]: 0 CELLS/uL
- ABSOLUTE EOSINOPHIL [2]: 0 CELLS/uL
- ABSOLUTE LYMPHOCYTE [2]: 11965.67 CELLS/uL
- ABSOLUTE MONOCYTE [2]: 420.67 CELLS/uL
- ABSOLUTE SEGMENTED NEUTROPHIL [2]: 2847 CELLS/uL
- BASOPHIL [2]: 0%
- EOSINOPHIL [2]: 0%
- ERYTHROCYTE COUNT [2]: 6.58 x10E6/uL
- HEMATOCRIT [2]: 40.53%
- HEMOGLOBIN [2]: 15.87 G/DL
- LEUKOCYTE COUNT [2]: 15.23 x10E3/uL
- LYMPHOCYTE [2]: 77.33%
- MEAN CORPUSCULAR HEMOGLOBIN [2]: 24.13 pg
- MEAN CORPUSCULAR HEMOGLOBIN CONCENTRATION [2]: 39.17 G/DL
- MEAN CORPUSCULAR VOLUME [2]: 61.6 fL
- MONOCYTE [2]: 2.67%
- NEUTROPHIL [2]: 20%
- NUCLEATED RED BLOOD CELLS [2]: 0 /100WBC
- PLATELET COUNT [2]: 1375.67 x10E3/uL
- ALANINE AMINOTRANSFERASE [2]: 80 u/L
- ALBUMIN [2]: 4.43 G/DL
- ALKALINE PHOSPHATASE [2]: 350.33 u/L
- ASPARTATE AMINOTRANSFERASE [2]: 113.67 u/L
- BLOOD UREA NITROGEN [2]: 14 mg/dL
- CARBON DIOXIDE [2]: 31 mmol/L
- CHLORIDE [2]: 96.33 MEQ/L
- CHOLESTEROL [2]: 148.67 mg/dL
- CREATINE PHOSPHOKINASE [2]: 217 u/L
- CREATININE [2]: 0.21 mg/dL
- GLUCOSE [2]: 160 mg/dL
- LACTATE DEHYDROGENASE [2]: 259 u/L
- LIPASE [2]: 11 u/L
- PHOSPHORUS [2]: 12.37 mg/dL
- POTASSIUM [2]: 5.97 MEQ/L
- SODIUM [2]: 145.43 MEQ/L
- TOTAL BILIRUBIN [2]: 0.47 mg/dL
- TOTAL PROTEIN [2]: 6.3 G/DL
- URIC ACID [2]: 1.7 mg/dL
- ABSOLUTE BASOPHIL [3]: 0 CELLS/uL
- ABSOLUTE EOSINOPHIL [3]: 0 CELLS/uL
- ABSOLUTE LYMPHOCYTE [3]: 11388 CELLS/uL
- ABSOLUTE MONOCYTE [3]: 273 CELLS/uL
- ABSOLUTE SEGMENTED NEUTROPHIL [3]: 2639 CELLS/uL
- BASOPHIL [3]: 0%
- EOSINOPHIL [3]: 0%
- ERYTHROCYTE COUNT [3]: 6.24 x10E6/uL
- HEMATOCRIT [3]: 38.2%
- HEMOGLOBIN [3]: 15.25 G/DL
- LEUKOCYTE COUNT [3]: 14.3 x10E3/uL
- LYMPHOCYTE [3]: 79%
- MEAN CORPUSCULAR HEMOGLOBIN [3]: 24.5 pg
- MEAN CORPUSCULAR HEMOGLOBIN CONCENTRATION [3]: 39.9 G/DL
- MEAN CORPUSCULAR VOLUME [3]: 61.45 fL
- MONOCYTE [3]: 2%
- NEUTROPHIL [3]: 19%
- NUCLEATED RED BLOOD CELLS [3]: 0 /100WBC
- PLATELET COUNT [3]: 1196.5 x10E3/uL
- ALANINE AMINOTRANSFERASE [3]: 114 u/L
- ALBUMIN [3]: 3.85 G/DL
- ALKALINE PHOSPHATASE [3]: 310.5 u/L
- ASPARTATE AMINOTRANSFERASE [3]: 198.5 u/L
- BLOOD UREA NITROGEN [3]: 19 mg/dL
- CARBON DIOXIDE [3]: 24.5 mmol/L
- CHLORIDE [3]: 97.5 MEQ/L
- CHOLESTEROL [3]: 104 mg/dL
- CREATINE PHOSPHOKINASE [3]: 397.5 u/L
- CREATININE [3]: 0.18 mg/dL
- GLUCOSE [3]: 120.5 mg/dL
- LACTATE DEHYDROGENASE [3]: 645 u/L
- LIPASE [3]: 12.5 u/L
- PHOSPHORUS [3]: 11 mg/dL
- POTASSIUM [3]: 5.77 MEQ/L
- SODIUM [3]: 142.7 MEQ/L
- TOTAL BILIRUBIN [3]: 0.6 mg/dL
- TOTAL PROTEIN [3]: 5.65 G/DL
- URIC ACID [3]: 1.35 mg/dL
